Here are results for one compound from PMC3648489, “The sodium glucose cotransporter 2 inhibitor empagliflozin does not prolong QT interval in a thorough QT (TQT) study” (Cardiovascular Diabetology, 2013).

Each structure is given as a SMILES string.

Data set [1] relates to healthy volunteers. As to the kind of experiment: Thorough QT study: triplicate 12-lead ECG, QTcN and heart rate change from baseline. As to conditions: for Difference from placebo: ΔΔQTcN (placebo-corrected MCfB in QTcN), adjusted mean: 2-4 hours post-dose, assay sensitivity. The format is in vivo, human. On the procedure:
This thorough QT study (TQT) was a randomised, double-blind (moxifloxacin open), placebo-controlled crossover trial which included the following treatments: 25 mg and 200 mg empagliflozin (Boehringer Ingelheim Pharma GmbH & Co. KG); 400 mg open-label moxifloxacin (Avalox®; Bayer Vital, Leverkusen, Germany); and two placebo periods, with a washout of at least seven days between treatments. Trial medication was administered in the morning after an overnight fast.
ECG recordings were made at screening and at the end of the study as part of the safety evaluation. For the QTc evaluation, ECG recordings were made on study drug administration days (as ECG profiles) at 60, 50 and 40 minutes pre-dose (to derive the period-specific baseline), and at 0.5, 1, 1.5, 2, 2.5, 3, 4, 6, 8, 12 and 24 hours post-dose (last three time points omitted for moxifloxacin treatment). At each time point, triplicate standard 12-lead ECGs (I, II, III, aVR, aVL, aVF, V1–V6) of 10 seconds’ duration each were recorded after at least 5 minutes’ rest in the supine position using CardioSoft ECG recording machines (GE Healthcare, Freiburg, Germany). ECGs were sent to a central laboratory for evaluation of PR, QRS, RR and QT intervals. The semi-automatic approach used for determination of the fiducial points provided an automatic pre-assessment using a computer algorithm, which was reviewed by a specialist and adjusted if necessary. This review was performed blinded with regard to treatment and time point.
Data from four cardiac cycles per ECG were averaged. A population heart rate-corrected QT interval (QTcN) was derived by determining the exponent δ of the relationship: QT ~ (1000 / RR)^δ (where δ is the regression effect of the covariate) using a linear mixed model on log-transformed RR and QT data (measured in ms). Data from triplicate ECGs were then averaged for each time point.
The primary endpoint was the mean change from baseline (MCfB) in QTcN which was the mean QTcN derived from ECGs obtained 1–4 hours post-dose minus mean QTcN from baseline ECGs obtained pre-dose at each visit. Plasma concentrations of both empagliflozin and moxifloxacin were expected to reach peak levels within this three-hour window, ensuring the most relevant levels of drug exposure.
(§1) Secondary endpoints were the changes from period baseline in QTcN at any time point between 0.5–24 hours after dosing. In addition, the MCfB 2–4 hours after dosing (for assessment of the moxifloxacin effect), and the MCfB of all ECGs taken 0.5–24 hours after dosing were evaluated. Safety and tolerability were evaluated based on physical examination, vital signs, ECG, clinical laboratory tests, adverse events (AEs) and the physician’s assessment of global tolerability.
Briefly, the primary analysis compared changes in the primary endpoint (QTcN MCfB over 1–4 hours) using an analysis of covariance (ANCOVA) model with ‘sequence’, ‘period’ and ‘treatment’ as fixed effects, ‘subjects nested within sequences’ as a random effect, and ‘pre-dose baseline’ as a covariate. Analyses were performed using pair-wise comparisons of the trial treatments. The saturated repeated measurements crossover (RMC) model with unstructured covariance using pair-wise comparisons of the trial treatments was used to evaluate changes from baseline in QTcN at any time point between 0.5–24 hours after dosing. […] For descriptive statistics and the exposure-response analysis, the changes from baseline in QTcN of the placebo periods were averaged prior to the derivation of the placebo corrected MCfB.
In agreement with ICH E14, all tests were performed one-sided against the threshold level of regulatory concern of 10 ms with type-I error of α=5%, which is statistically equivalent to the calculation of two-sided 90% confidence intervals for the adjusted mean estimates. […]

Data set [2] relates to healthy volunteers. Also noted: method as in PMID 19238652, PMID 15165918, PMID 15903123, PMID 11180026. As to conditions: moxifloxacin 400 mg; cited from earlier work.
Data set [3] relates to healthy volunteers. As to the kind of experiment: Safety and tolerability (adverse events) in the TQT study. The format is in vivo, human. As to conditions: moxifloxacin; one participant; not considered related to study medication. Here is the method: as §1
Categorical endpoints such as AEs, cardiologic assessments and occurrence of ECG intervals beyond thresholds of regulatory concern (e.g. QTc >450 ms) were analysed based on incidence rates adjusted for the number of periods in which the treatment was given. Additionally, the analysis of such events in periods with any of the two doses of empagliflozin compared with the two placebo periods provides a direct comparison of incidence rates. All analyses were performed on the “full analysis set”, which comprised all recorded data of all subjects who received at least one dose of study treatment and had at least one ECG endpoint assessment at baseline and post treatment. No imputation for missing data was planned or performed.

The mark [4] stands for this setting: moxifloxacin 400 mg, 2-4 hours after administration.

`COc1c(N2C[C@@H]3CCCN[C@@H]3C2)c(F)cc2c(=O)c(C(=O)O)cn(C3CC3)c12` [Moxifloxacin, moxifloxacin, reference compound]: in the data set on healthy volunteers [1] (moxifloxacin 400 mg), the “Number of volunteers with a change in QTcN more than 30 ms” value was “Five” and the “Difference from placebo: ΔΔQTcN (placebo-corrected MCfB in QTcN), adjusted mean” value is given as 12.4 (1.0) ms. The “QTcN mean change from baseline: ΔQTcN, adjusted mean (SE)” value with healthy volunteers [1] (moxifloxacin 400 mg single dose, open-label, 2-4 hours after administration, n=29) is on record as 16.0 (1.2) ms. Moreover, the “Volunteers exceeding the QTcN threshold of 450 ms” value in the data set on healthy volunteers [1] (moxifloxacin 400 mg, 0.5-6 hours post-dose, two volunteers) stood at 6.9%. In addition, in the data set with healthy volunteers [1] (setting [4]), the “Difference from placebo: ΔΔHR, adjusted mean (SE)” value was 2.2 (0.6) bpm and the “HR mean change from baseline: ΔHR, adjusted mean (SE)” value was 2.0 (0.6) bpm. Besides, the “Difference from placebo: ΔΔQTcN (placebo-corrected MCfB in QTcN), adjusted mean” value with healthy volunteers [1] (moxifloxacin 400 mg, listed as moxifloxacin) is recorded as 12.4 (10.7, 14.1) ms. Further, the “Prolongation of heart rate-corrected QT interval compared to placebo” value with healthy volunteers [2] was 6 to 15 ms. The “Serious AE leading to study discontinuation” value in the data set on healthy volunteers [3] is “fatal car accident”.
